Series [1] concerns L6 cells (rat skeletal myoblasts). Kind of series: Cytotoxicity in the host L6 cells. Format: cell-based. As to conditions: read-out: Cyt. L6 IC50. The method, then:
(§1) Compounds in Table 1 were screened for antiparasitic activity against three trypanosomatids: T. cruzi, T. b. rhodesiense and Leishmania donovani. The concentration of compound that inhibits parasite growth by 50% (IC50) was calculated from dose response curves for each parasite (Table 1). In addition, compounds were tested for toxicity in L6 rat skeletal myoblasts, used as host cells for T. cruzi amastigotes, in order to calculate a selectivity index for each parasite (SI = IC50L6/IC50parasite) (Table 1).
(§2) In vitro activity against T. cruzi, T. b. rhodesiense, L. donovani and cytotoxicity assessment using L6 cells (rat skeletal myoblasts) was determined using a 96-well plate format as previously described. Data were analyzed with the graphic program Softmax Pro (Molecular Devices, Sunnyvale, CA, USA), which calculated IC50 values by linear regression from the sigmoidal dose inhibition curves.

Series [2] has as its system T.b. rhodesiense, strain STIB 900 trypomastigotes. Kind of series: In vitro activity against T. b. rhodesiense, strain STIB 900 trypomastigotes. The format is cell-based, Trypanosoma brucei rhodesiense. As to conditions: for IC50: Trypanosoma brucei, read-out: T.b.r. IC50; for SI (T.b.r.): ratio IC50 in L6 cells/IC50 in T.b. rhodesiense. The method, then: as §1, §2
For series [3], the system named is L. donovani axenic, strain MHOM-ET-67/L82 amastigotes. Kind of series: In vitro activity against L. donovani axenic amastigotes. The format is cell-based, Leishmania donovani. As to conditions: for IC50: Leishmania donovani, L. donovani axenic amastigotes MHOM-ET-67/L82, read-out: L.d. IC50; for SI (L.d.): ratio IC50 in L6 cells/IC50 in L. donovani; for activity class against L. donovani: L. donovani amastigotes.
Experimental: (§3) In vitro activity against T. cruzi, T. b. rhodesiense, L. donovani and cytotoxicity assessment using L6 cells (rat skeletal myoblasts) was determined using a 96-well plate format as previously described [38]. Data were analyzed with the graphic program Softmax Pro (Molecular Devices, Sunnyvale, CA, USA), which calculated IC50 values by linear regression from the sigmoidal dose inhibition curves.

Series [4] concerns T. cruzi, strain Tulahuen C4 amastigotes. Kind of series: In vitro activity against T. cruzi amastigotes in infected L6 cells. The format is cell-based, Trypanosoma cruzi. To be noted: for IC50: Trypanosoma cruzi, T. cruzi Tulahuen C4 amastigotes in L6 cells, read-out: T. c. IC50; for SI (T. c.): ratio IC50 in L6 cells/IC50 in T. cruzi; for Bnz/comp: ratio of T. cruzi IC50 of benznidazole to that of the compound.
Experimental: as §3

The subject of series [5] is TbNTR overexpressing T. b. brucei. Kind of series: microbe, parasite or virus in culture. The format is cell-based, Trypanosoma brucei brucei. To be noted: for Ratio –tet/+tet: IC50 −tet / IC50 +tet; for IC50: Trypanosoma brucei.
Experimental: (§4) To further determine whether NTR plays a role in metabolizing the substrates within the parasite, the above subset of compounds were phenotypically screened against BSF T. b. brucei expressing wild type or elevated levels of TbNTR.
(§5) Where appropriate, induction of the TbNTR was carried out by adding tetracycline (1 μg/mL). After incubation for 3 days at 37 °C, resazurin (2.5 μg per well) was added to each well and the plates incubated for a further 8 h. The cell density of each culture was determined as described before [26] and the IC50 established.
Another series relates to T. b. brucei wild type. Kind of series: T. brucei brucei antiproliferating assay, wild type bloodstream form. To be noted: Trypanosoma brucei, 72 h. Format: cell-based.
Setting [6] is: T.b. rhodesiense STIB 900 trypomastigotes.
[7] abbreviates: read-out: IC50 value T.b. brucei TbNTR (+tet).
The mark [8] stands for this setting: read-out: IC50 value T.b. brucei TbNTR (−tet).
The mark [9] stands for this setting: read-out: IC50 value T.b. brucei Wild type, BSF, wild type, 3 days.

Each structure is given as a SMILES string. Like-named read-outs stand apart in the source and are kept apart here. Some results are limits rather than exact numbers.

Experimental for T. b. brucei wild type: as §4, §5

The IC50 is the concentration needed to halve the response being measured. By melting point is commonly meant the temperature, or range, at which the solid turns liquid. Turning to `Cc1ccc(N2CCN(CC(=O)Nc3ncc([N+](=O)[O-])s3)CC2)cc1` [Compound 2, N-(5-nitrothiazol-2-yl)-2-(4-(p-tolyl)piperazin-1-yl)acetamide], the melting point was 160 to 161 °C (dec.). The IC50 in series [1] stood at 126 µM. Further, in series [2] (setting [6]), the IC50 worked out at 14.4 µM. Moreover, the “SI (T.b.r.)” value in series [2] was determined as 8.8. In series [3], the IC50 is 41.4 µM and the “SI (L.d.)” value came to 3. In series [4], the IC50 was 9.31 µM, the “SI (T. c.)” value is on record as 14 and the Bnz/comp is given as 0.2.
Compound `O=C(CN1CCN(c2ccc(C(F)(F)F)cc2)CC1)Nc1ncc([N+](=O)[O-])s1` [Compound 3, N-(5-nitrothiazol-2-yl)-2-(4-(4-(trifluoromethyl)phenyl)piperazin-1-yl)acetamide] yielded a melting point of 173 to 175 °C. Also, the IC50 in series [1] turned out to be 47.1 µM. The IC50 in series [2] (setting [6]) amounted to 8.42 µM. In addition, the “SI (T.b.r.)” value in series [2] came to 5.6. Moreover, in series [3], the IC50 came out at 12.7 µM and the “SI (L.d.)” value worked out at 3.7. For the same compound, in series [5], the “Ratio –tet/+tet” value is on record as 2.8. Further, in series [5] (setting [7]), the concentration for half-maximal inhibition (IC50) came to 0.526 ± 0.024 µM. The 50% inhibitory concentration (IC50) in series [5] (setting [8]) worked out at 1.46 ± 0.113 µM. In series [4], the IC50 turned out to be 1.73 µM, the “SI (T. c.)” value stood at 27 and the Bnz/comp stood at 1.3. In the series with T. b. brucei wild type (setting [9]), the IC50 stood at 1.02 ± 0.045 µM.
Turning to `COc1ccc(N2CCN(CC(=O)Nc3ncc([N+](=O)[O-])s3)CC2)cc1` [Compound 4, 2-(4-(4-methoxyphenyl)piperazin-1-yl)-N-(5-nitrothiazol-2-yl)acetamide], the melting point was 154 to 156 °C (dec.). In series [1], the IC50 worked out at 143 µM. The IC50 in series [2] (setting [6]) was determined as 13.8 µM. For the same compound, the “SI (T.b.r.)” value in series [2] came to 10. In series [3], the IC50 is 68.2 µM and the “SI (L.d.)” value came out at 2.1. Also, in series [4], the IC50 was 3.06 µM and the Bnz/comp came out at 0.7.
In turn, `O=C(CN1CCN(c2ccc(Cl)c(Cl)c2)CC1)Nc1ncc([N+](=O)[O-])s1` [Compound 5, 2-(4-(3,4-dichlorophenyl)piperazin-1-yl)-N-(5-nitrothiazol-2-yl)acetamide] displayed a melting point of 169 to 171 °C. In series [1], the IC50 worked out at 45.7 µM. Moreover, the 50% inhibitory concentration (IC50) in series [2] (setting [6]) worked out at 10.8 µM. For the same compound, the “SI (T.b.r.)” value in series [2] worked out at 4.2. Besides, in series [3], the IC50 worked out at 7.55 µM and the “SI (L.d.)” value is on record as 6.1. Also, the “Ratio –tet/+tet” value in series [5] is on record as 2.6. Also, in series [5] (setting [7]), the IC50 stood at 0.747 ± 0.075 µM. Further, the IC50 in series [5] (setting [8]) was 1.96 ± 0.101 µM. In series [4], the IC50 turned out to be 1.53 µM, the “SI (T. c.)” value worked out at 30 and the Bnz/comp was 1.4. Besides, the IC50 in the series on T. b. brucei wild type (setting [9]) stood at 1.36 ± 0.091 µM.
The compound `O=C(CN1CCN(C(c2ccccc2)c2ccc(Cl)cc2)CC1)Nc1ncc([N+](=O)[O-])s1` (stereo not shown) [Compound 6, 2-(4-((4-chlorophenyl)(phenyl)methyl)piperazin-1-yl)-N-(5-nitrothiazol-2-yl)acetamide] returned a melting point of 92 to 95 °C. For the same compound, the IC50 in series [1] is 12.9 µM. Also, the IC50 in series [2] (setting [6]) came to 17.4 µM. Further, in series [2], the “SI (T.b.r.)” value is under 1. Moreover, in series [3], the “activity class against L. donovani” value is “moderately active (between 1.0 and 6.0 μM)”; the concentration for half-maximal inhibition (IC50) is 3.39 µM; the “SI (L.d.)” value came to 3.8. Further, in series [5], the “Ratio –tet/+tet” value was found to be 2.6. In addition, the IC50 in series [5] (setting [7]) is 0.636 ± 0.022 µM. Further, in series [5] (setting [8]), the IC50 is 1.64 ± 0.069 µM. In series [4], the IC50 was determined as 0.571 µM, the “SI (T. c.)” value turned out to be 23 and the Bnz/comp is 3.8. Further, the “fold less potent against T. cruzi than the corresponding 3-nitrotriazole-based analog” value in series [4] (comparison with analogs of ref 24) is reported as “about 8 fold”. For the same compound, the IC50 in the series on T. b. brucei wild type (setting [9]) was found to be 1.47 ± 0.104 µM.
Turning to `O=C(CN1CCN(c2ccccn2)CC1)Nc1ncc([N+](=O)[O-])s1` [Compound 7, N-(5-nitrothiazol-2-yl)-2-(4-(pyridin-2-yl)piperazin-1-yl)acetamide], the melting point was 175 to 180 °C (dec.). For the same compound, the IC50 in series [1] came out at 29.6 µM. Besides, the IC50 in series [2] (setting [6]) was 13.3 µM. The “SI (T.b.r.)” value in series [2] stood at 2.2. Further, in series [3], the IC50 amounted to 64.9 µM and the “SI (L.d.)” value is recorded as under 1. In addition, in series [4], the IC50 is 4.97 µM, the “SI (T. c.)” value is recorded as 5.9 and the Bnz/comp turned out to be 0.4.
For `O=C(Nc1ncc([N+](=O)[O-])s1)c1ccc(-c2ccccc2)cc1` [Compound 8, N-(5-nitrothiazol-2-yl)-[1,1′-biphenyl]-4-carboxamide], the melting point is over 230 °C. Moreover, in series [1], the IC50 was determined as 6.57 µM. Besides, the IC50 in series [2] (setting [6]) was 14.3 µM. Further, the “SI (T.b.r.)” value in series [2] was under 1. Further, in series [3], the IC50 amounted to 104 µM and the “SI (L.d.)” value is given as under 1. Further, the “Ratio –tet/+tet” value in series [5] was found to be 2.1. In series [5] (setting [7]), the IC50 came to 2.18 ± 0.085 µM. Moreover, the IC50 in series [5] (setting [8]) stood at 4.59 ± 0.149 µM. In series [4], the IC50 came to 2.52 µM, the “SI (T. c.)” value was 2.6 and the Bnz/comp was found to be 0.9. Besides, the IC50 with T. b. brucei wild type (setting [9]) worked out at 1.61 ± 0.396 µM.
As for `O=C(COc1cccc(-c2ccccc2)c1)Nc1ncc([N+](=O)[O-])s1` [Compound 9, 2-([1,1′-biphenyl]-3-yloxy)-N-(5-nitrothiazol-2-yl)acetamide], the melting point was 148 to 150 °C. In addition, the IC50 in series [1] stood at 49.4 µM. The IC50 in series [2] (setting [6]) is 28.7 µM. The “SI (T.b.r.)” value in series [2] was 1.7. Further, in series [3], the “activity class against L. donovani” value is “moderately active (between 1.0 and 6.0 μM)”; the concentration for half-maximal inhibition (IC50) was found to be 4.27 µM; the “SI (L.d.)” value came to 12. Also, in series [4], the IC50 is 22.8 µM, the “SI (T. c.)” value came to 2.2 and the Bnz/comp came out at 0.1.
Consider `O=C(COc1cccc(Oc2ccccc2)c1)Nc1ncc([N+](=O)[O-])s1` [Compound 10, N-(5-nitrothiazol-2-yl)-2-(3-phenoxyphenoxy)acetamide], for which the melting point lay in the range of 151 to 153 °C. Moreover, in series [1], the IC50 was found to be 54.9 µM. For the same compound, the IC50 in series [2] (setting [6]) came to 31 µM. In series [2], the “SI (T.b.r.)” value stood at 1.8. In addition, in series [3], the “activity class against L. donovani” value is “moderately active (between 1.0 and 6.0 μM)”; the IC50 turned out to be 5.4 µM; the “SI (L.d.)” value worked out at 10. In addition, in series [4], the IC50 turned out to be 34.6 µM, the “SI (T. c.)” value is given as 1.6 and the Bnz/comp was determined as 0.1.
Turning to `O=C(COc1ccc(-c2ccccc2)cc1)Nc1ncc([N+](=O)[O-])s1` [Compound 11, 2-([1,1′-biphenyl]-4-yloxy)-N-(5-nitrothiazol-2-yl)acetamide], the melting point lay within 196 to 198 °C. In addition, the IC50 in series [1] is 54.9 µM. Besides, in series [2] (setting [6]), the IC50 was determined as 40.8 µM. Besides, in series [2], the “SI (T.b.r.)” value stood at 1.3. Besides, in series [3], the IC50 is 10.5 µM and the “SI (L.d.)” value was found to be 5.2. Moreover, in series [5], the “Ratio –tet/+tet” value is listed as 1.5. Moreover, the IC50 in series [5] (setting [7]) was found to be 2.2 ± 0.1 µM. Also, in series [5] (setting [8]), the IC50 came out at 3.25 ± 0.142 µM. Further, in series [4], the IC50 stood at 18.4 µM, the “SI (T. c.)” value was 3 and the Bnz/comp stood at 0.1. Also, in the series on T. b. brucei wild type (setting [9]), the IC50 worked out at 3.75 ± 0.383 µM.
Regarding `O=C(COc1ccc(Oc2ccccc2)cc1)Nc1ncc([N+](=O)[O-])s1` [Compound 12, N-(5-nitrothiazol-2-yl)-2-(4-phenoxyphenoxy)acetamide], the IC50 turned out to be 52.7 µM in series [1], 28.4 µM in series [2] (setting [6]), 5.4 µM in series [3] and 32.6 µM in series [4]. In addition, the “activity class against L. donovani” value in series [3] was “moderately active (between 1.0 and 6.0 μM)”. Besides, the Bnz/comp in series [4] worked out at 0.1.
As to `Nc1nc(N)nc(Nc2ccc([As]3SCC(CO)S3)cc2)n1` (stereo not shown) [Melars., Melarsoprol, reference compound], the IC50 in series [2] stood at 0.009 ± 0.001 µM.
For the compound `CC1CS(=O)(=O)CCN1/N=C/c1ccc([N+](=O)[O-])o1` (stereo not shown) [nfx, nifurtimox, reference compound], in series [5], the “Ratio –tet/+tet” value is recorded as 7.3. In addition, the IC50 stood at 0.869 ± 0.046 µM in series [5] (setting [7]); 6.36 ± 0.119 µM in series [5] (setting [8]); 3.98 ± 0.15 µM in the series on T. b. brucei wild type (BSF, wild type, 3 days, read-out: IC50 value T.b. brucei Wild type).

The values are drawn from publication PMC4876673, “Antitrypanosomal activity of 5-nitro-2-aminothiazole-based compounds” (European Journal of Medicinal Chemistry, 2016).
